Measured values: patent US5563052A, “Process for producing L-tryptophan” (Kyowa Hakko Kogyo Co., LTD, priority 1988, dated 1996)
Read-outs that look alike come from different tables or passages of the source.

How the values were obtained:
Assay type in all cases: biochemical, Corynebacterium glutamicum
[1] = tested on: 3-deoxy-D-arabino-hepturosonate-7-phosphate synthase (DS); test: Inhibition of DS activity by phenylalanine and tyrosine; conditions: DS in the ATCC 13032 transformant carrying pCGDS1
Procedure: DS activities of Corynebacterium glutamicum ATCC 13032 and the transformant carrying pCGDS1 were determined according to the method of P. R. Sprinavasan, D. B. Sprinson, et al. [J. Biol. Chem., 234, 716 (1959)].

[2] = tested on: anthranilate phosphoribosyl transferase (PRT); test: Feedback inhibition of anthranilate phosphoribosyl transferase (PRT) activity by tryptophan; conditions: for IC50: read-out: Tryptophan concentration for 50% inhibiting the PRT activity
Procedure: (§1) AS activities of Corynebacterium glutamicum ATCC 13032 and TA108 strains carrying pCtrp1 or pCtrp57 were determined according to the method of H. Hagino, et al. [Agric. Biol. Chem., 39, 323 (1975)], and their PRT activities were determined according to the method of J. Ito and C. Yanofsky [J. Biol. Chem., 97, 734 (1969)]. AS and PRT activities of TA108 strains carrying pCtrp1 or pCtrp57 were more than 10 times as high as those of ATCC 13032 strain. Tryptophan concentrations for 50% inhibiting the AS activities of […] strain, TA108 strain carrying pCtrp1 and TA108 strain carrying pCtrp57 were 0.002 mM, 0.008 mM and 4.0 mM, respectively, while tryptophan concentrations for 50% inhibiting the PRT activities of these three strains were 0.19 mM, 0.19 mM and 4.8 mM, respectively.

[3] = tested on: anthranilate synthase (AS); test: Feedback inhibition of anthranilate synthase (AS) activity by tryptophan; conditions: for IC50: read-out: Tryptophan concentration for 50% inhibiting the AS activity
Procedure: as §1

Structure (SMILES) | Inhibition of DS [1] | Factor by which PRT is less sensitive to tryptophan ([2]; PRT encoded by pCtrp57 compared with PRT encoded by pCtrp1) | IC50 ([2]; PRT of TA108 strain carrying pCtrp1) [µM] | IC50 ([2]; PRT of TA108 strain carrying pCtrp57) [µM] | Factor by which AS is less sensitive to tryptophan ([3]; AS encoded by pCtrp57 compared with AS encoded by pCtrp1) | IC50 ([3]; AS of TA108 strain carrying pCtrp1) [µM] | IC50 ([3]; AS of TA108 strain carrying pCtrp57) [µM]
N[C@@H](Cc1ccccc1)C(=O)O [phenylalanine] | free from inhibition | – | – | – | – | – | –
N[C@@H](Cc1c[nH]c2ccccc12)C(=O)O [tryptophan] | – | about 25 | 190 | 4800 | about 500 | 8 | 4000
N[C@@H](Cc1ccc(O)cc1)C(=O)O [tyrosine] | free from inhibition | – | – | – | – | – | –
